# Measured values from article PMC12723578 (Archiv Der Pharmazie, 2025).
# Where “and” joins values, the source holds several entries; their conditions need not be identical. Equal values may be shown once. Where a name gives a salt, the structure may show the parent alone. Read-outs that look alike come from different tables or passages of the source.
# Tests used:
# SARS‐CoV‐2 M^pro [1] = target: T1, SARS‐CoV‐2 M^pro (Severe acute respiratory syndrome coronavirus 2, UniProt P0DTD1); assay: Screening of M^pro inhibition at 10 and 50 µM (fluorogenic substrate Boc‐Abu‐Tle‐Leu‐Gln‐AMC); assay type: biochemical; settings: for M^pro inhibition (in words): screened at 10 and 50 µM
# SARS‐CoV‐2 M^pro [2] = target: T1, SARS‐CoV‐2 M^pro; assay: Determination of IC50 and K i values; assay type: biochemical; settings: for Ki: calculated from IC50 with the Cheng‐Prusoff equation
# SARS‐CoV‐2 M^pro [3] = target: T1, SARS‐CoV‐2 M^pro; assay: Investigation of inhibition reversibility by jump dilution; assay type: biochemical; settings: 25 min preincubation, 100‐fold jump dilution
# [4] = Stability in aqueous media
# SARS‐CoV‐2 M^pro [5] = target: T1, SARS‐CoV‐2 M^pro; assay: Determination of k inac/K i for irreversible inhibitors; assay type: biochemical; settings: for k inac/K i: second‐order rate constant of enzyme inactivation, reactions monitored for 60 min
# [6] = In vitro stability in human plasma; assay type: in vitro ADME; settings: plasma diluted to 80% with sodium phosphate buffer, pH 7.4, male human plasma, 37°C, read-out: plasma half‐life t 1/2
# Method: For the investigation of the in vitro stability of 12 in human plasma, 100 µM of the M^pro inhibitor was incubated with male human plasma at 37°C for five different time periods.
# A volume of 30 µL of a 2 mM compound stock solution in DMSO was mixed with 570 µL of a male human plasma solution (Biomol GmbH, Hamburg, Germany) that was diluted to 80% with 0.05 M sodium phosphate buffer, pH 7.4, and prewarmed at 37°C. The final compound concentration was 100 µM, and the DMSO concentration was 5% (v/v). The mixture was divided into aliquots of 100 µL, which were incubated for different time periods and subsequently quenched by the addition of 200 µL of a 0.05 mg/mL reserpine (internal standard) and 2% AcOH (v/v) solution in MeOH. The samples were vortexed for 1 min, stored on ice for 15 min, and subsequently centrifuged at 15,000 rpm and 4°C for 2 min. After filtration through a 0.45 µm polytetrafluoroethylene membrane filter, the resulting solutions were analyzed by HPLC (Jasco Deutschland GmbH, Pfungstadt, Germany). […] The residual proportion was plotted versus incubation time and non‐linear regression according to Y(t) = Y 0 × e^ (‐kt) provided the first‐order rate constant of degradation k, with Y 0 being the compound proportion at t = 0 and Y(t) the residual proportion after a specific incubation time t. Equation t 1/2 = ln2/k afforded the plasma half‐life t 1/2 (n = 2).
# in vitro = settings: human
# SARS‐CoV‐2 [7] = assay: Cellular antiviral activity, virus plaque assay in A549‐ACE2 cells; assay type: cell-based
# A549‐ACE2 cells = settings: up to 100 µM
# SARS‐CoV‐2 [8] = settings: A549‐ACE2 cells; cited from earlier work
# [9] = phase I study, single‐dose treatment, fasted conditions, without ritonavir coadministration; cited from earlier work
# [10] = read-out: Inhibition @ [I] = 50 µM (%)
# [11] = product formation determined after 10 min
# [12] = read-out: Inhibition @ [I] = 10 µM (%)
# [13] = [I] = 10 µM, product formation determined after 10 min
# [14] = [I] = 50 µM, product formation determined after 10 min
compound,measurement,setting,value
"CC(C)(C)[C@H](NC(=O)c1cccs1)C(=O)N[C@@H](Cc1ccccc1)C(=O)NN(Cc1cccc(Cl)c1)C(=O)C(F)Cl (mixture of isomers) [Compound 14, N‐{[2S]‐1‐[({2S}‐1‐{2‐(2‐Chloro‐2‐fluoroacetyl)‐2‐(3‐chlorobenzyl)hydrazineyl}‐1‐oxo‐3 phenylpropan‐2‐yl)amino]‐3,3‐dimethyl‐1‐oxobutan‐2‐yl}thiophene‐2‐carboxamide]",inhibition at 50 µM,SARS‐CoV‐2 M^pro [1]; [10],69%
same,Ki,SARS‐CoV‐2 M^pro [2],4.34 ± 0.6 µM
same,IC50,SARS‐CoV‐2 M^pro [2]; [11],8.82 ± 1.22 µM
same,M^pro inhibition reversibility,SARS‐CoV‐2 M^pro [3],irreversible
"COC(=O)/C=C/N(C)NC(=O)[C@H](Cc1ccccc1)NC(=O)OCc1ccccc1 [Compound 1, Methyl (E)‐3‐{2‐[({benzyloxy}carbonyl)‐L‐phenylalanyl]‐1‐methylhydrazineyl}acrylate]",inhibition at 10 µM,SARS‐CoV‐2 M^pro [1]; [12],4%
same,inhibition at 50 µM,SARS‐CoV‐2 M^pro [1]; [10],0%
same,M^pro inhibition (in words),SARS‐CoV‐2 M^pro [1],inactive
"COC(=O)/C=C(\C(=O)OC)N(C)NC(=O)[C@H](Cc1ccccc1)NC(=O)OCc1ccccc1 [Compound 2, Dimethyl 2‐{2‐[({benzyloxy}carbonyl)‐L‐phenylalanyl]‐1‐methylhydrazineyl}maleate]",inhibition at 10 µM,SARS‐CoV‐2 M^pro [1]; [12],1%
same,inhibition at 50 µM,SARS‐CoV‐2 M^pro [1]; [10],2%
same,M^pro inhibition (in words),SARS‐CoV‐2 M^pro [1],inactive
"CCOC(=O)N(C)NC(=O)[C@H](Cc1ccccc1)NC(=O)OCc1ccccc1 [Compound 3, Ethyl 2‐{[(N‐benzyloxy)carbonyl]‐L‐phenylalanyl}‐1‐5;methylhydrazine‐1‐carboxylate]",inhibition at 10 µM,SARS‐CoV‐2 M^pro [1]; [12],2%
same,inhibition at 50 µM,SARS‐CoV‐2 M^pro [1]; [10],3%
same,M^pro inhibition (in words),SARS‐CoV‐2 M^pro [1],did not cause protease inhibition
"COC(=O)CC(=O)N(C)NC(=O)[C@H](Cc1ccccc1)NC(=O)OCc1ccccc1 [Compound 4, Methyl 3‐{2‐[({benzyloxy}carbonyl)‐L‐phenylalanyl]‐1‐6;methylhydrazineyl}‐3‐oxopropanoate]",inhibition at 10 µM,SARS‐CoV‐2 M^pro [1]; [12],0%
same,inhibition at 50 µM,SARS‐CoV‐2 M^pro [1]; [10],0%
same,M^pro inhibition (in words),SARS‐CoV‐2 M^pro [1],inactive
"CCOC(=O)/C=C/C(=O)N(C)NC(=O)[C@H](Cc1ccccc1)NC(=O)OCc1ccccc1 [Compound 5, Ethyl (E)‐4‐{2‐[({benzyloxy}carbonyl)‐L‐phenylalanyl]‐1‐methylhydrazineyl}‐4‐oxobut‐2‐enoate]",inhibition at 10 µM,SARS‐CoV‐2 M^pro [1]; [12],7%
same,inhibition at 50 µM,SARS‐CoV‐2 M^pro [1]; [10],13%
same,M^pro inhibition (in words),SARS‐CoV‐2 M^pro [1],did not cause protease inhibition
"CN(NC(=O)[C@H](Cc1ccccc1)NC(=O)OCc1ccccc1)C(=O)CCl [Compound 6, Benzyl (S)‐{1‐[2‐(2‐chloroacetyl)‐2‐methylhydrazineyl]‐1‐oxo‐3‐phenylpropan‐2‐yl}carbamate]",inhibition at 10 µM,SARS‐CoV‐2 M^pro [1]; [13],19%
same,inhibition at 50 µM,SARS‐CoV‐2 M^pro [1]; [14],55%
same,Ki,SARS‐CoV‐2 M^pro [2],14.8 ± 0.8 µM
same,IC50,SARS‐CoV‐2 M^pro [2]; [11],30.1 ± 1.7 µM
same,M^pro inhibition reversibility,SARS‐CoV‐2 M^pro [3],irreversible
"CN(NC(=O)[C@H](Cc1ccccc1)NC(=O)OCc1ccccc1)C(=O)C(Cl)Cl [Compound 7, Benzyl (S)‐{1‐[2‐(2,2‐dichloroacetyl)‐2‐methylhydrazineyl]‐1‐oxo‐3‐phenylpropan‐2‐yl}carbamate]",inhibition at 10 µM,SARS‐CoV‐2 M^pro [1]; [13],85%
same,inhibition at 50 µM,SARS‐CoV‐2 M^pro [1]; [14],100%
same,Ki,SARS‐CoV‐2 M^pro [2],1.22 ± 0.09 µM
same,IC50,SARS‐CoV‐2 M^pro [2]; [11],2.47 ± 0.18 µM
same,M^pro inhibition reversibility,SARS‐CoV‐2 M^pro [3],reversible
"CN(NC(=O)[C@H](Cc1ccccc1)NC(=O)OCc1ccccc1)C(=O)C(F)Cl (stereo partly shown) [Compound 8, Benzyl {[2S]‐1‐[2‐(2‐chloro‐2‐fluoroacetyl)‐2‐methylhydrazinyl]‐1‐oxo‐3‐phenylpropan‐2‐yl}carbamate]",inhibition at 10 µM,SARS‐CoV‐2 M^pro [1]; [12],10%
same,inhibition at 50 µM,SARS‐CoV‐2 M^pro [1]; [10],16%
same,M^pro inhibition (in words),SARS‐CoV‐2 M^pro [1],failed to strongly inhibit
"CN(NC(=O)[C@H](Cc1ccccc1)NC(=O)OCc1ccccc1)C(=O)C(F)(F)Cl [Compound 9, Benzyl (S)‐{1‐[2‐(2‐chloro‐2,2‐difluoroacetyl)‐2‐methylhydrazineyl]‐1‐oxo‐3‐phenylpropan‐2‐yl}carbamate]",inhibition at 10 µM,SARS‐CoV‐2 M^pro [1]; [12],9%
same,inhibition at 50 µM,SARS‐CoV‐2 M^pro [1]; [10],15%
same,M^pro inhibition (in words),SARS‐CoV‐2 M^pro [1],failed to strongly inhibit
"CN(CC#N)NC(=O)[C@H](Cc1ccccc1)NC(=O)OCc1ccccc1 [Compound 10, Benzyl (S)‐{1‐[2‐(cyanomethyl)‐2‐methylhydrazineyl]‐1‐oxo‐3‐phenylpropan‐2‐yl}carbamate]",inhibition at 10 µM,SARS‐CoV‐2 M^pro [1]; [12],10%
same,inhibition at 50 µM,SARS‐CoV‐2 M^pro [1]; [10],11%
same,M^pro inhibition (in words),SARS‐CoV‐2 M^pro [1],did not exhibit notable inhibitory properties
"CN(NC(=O)[C@H](Cc1ccccc1)NC(=O)OCc1ccccc1)S(=O)(=O)F [Compound 11, Benzyl (S)‐{1‐[2‐(fluorosulfonyl)‐2‐methylhydrazineyl]‐1‐oxo‐3‐phenylpropan‐2‐yl}carbamate]",stability in aqueous media,[4],not sufficiently stable
same,inhibition at 10 µM,SARS‐CoV‐2 M^pro [1]; [12],40%
same,IC50,SARS‐CoV‐2 M^pro [2],14.7 ± 0.7 µM
same,Ki,SARS‐CoV‐2 M^pro [2],7.24 ± 0.34 µM
same,M^pro inhibition reversibility,SARS‐CoV‐2 M^pro [3],irreversible
same,k inac/K i,SARS‐CoV‐2 M^pro [5],54.6 ± 25.0 M⁻¹ s⁻¹ and 54.6 M⁻¹ s⁻¹
"CC(C)(C)[C@H](NC(=O)c1cccs1)C(=O)N[C@@H](Cc1ccccc1)C(=O)NN(Cc1cccc(Cl)c1)C(=O)CCl [Compound 12, N‐{[S]‐1‐[({S}‐1‐{2‐(2‐Chloroacetyl)‐2‐(3‐chlorobenzyl)hydrazineyl}‐1‐oxo‐3‐phenylpropan‐2‐yl)amino]‐3,3‐dimethyl‐1‐oxobutan‐2‐yl}thiophene‐2‐carboxamide]",half-life at 100 µM,[6],1.6 ± 0.148 h
same,inhibition at 50 µM,SARS‐CoV‐2 M^pro [1]; [14],100%
same,Ki,SARS‐CoV‐2 M^pro [2],0.023 ± 0.0017 µM
same,IC50,SARS‐CoV‐2 M^pro [2]; [11],0.0466 ± 0.0034 µM
same,CC50 at 24 h,in vitro,> 100 µM
same,EC50,"SARS‐CoV‐2 [7]; Severe acute respiratory syndrome coronavirus 2, A549‐ACE2 cells, MOI 0.1, 24 h postinfection, plaque assay, read-out: EC50",0.47 µM
same,M^pro inhibition reversibility,SARS‐CoV‐2 M^pro [3],irreversible
same,cytotoxicity,A549‐ACE2 cells,no cytotoxicity
same,improvement of k inac/K i value versus 14,SARS‐CoV‐2 M^pro [5]; 12 compared with 14,50 fold
same,k inac/K i,SARS‐CoV‐2 M^pro [5],"78,900 M^−1s^−1 and 78,900 ± 12,800 M^−1s^−1 and 100% inhibition @ 50 µM^a Ki = 0.0230 µM^b kinac/Ki = 78,900 M^-1s^-1 c EC50 = 0.47 µM^d M^−1s^−1"
"CC(C)(C)[C@H](NC(=O)c1cccs1)C(=O)N[C@@H](Cc1ccccc1)C(=O)NN(Cc1cccc(Cl)c1)C(=O)C(Cl)Cl [Compound 13, N‐{[S]‐1‐[({S}‐1‐{2‐(3‐Chlorobenzyl)‐2‐(2,2‐dichloroacetyl)hydrazineyl}‐1‐oxo‐3‐phenylpropan‐2‐yl)amino]‐3,3‐dimethyl‐1‐oxobutan‐2‐yl}thiophene‐2‐carboxamide]",inhibition at 50 µM,SARS‐CoV‐2 M^pro [1]; [10],< 50%
same,M^pro inhibition reversibility,SARS‐CoV‐2 M^pro [3],Reversible
"CCN(CC)CCOC(=O)c1ccc(N)cc1 [Procaine hydrochloride, reference compound]",half-life at 100 µM,[6],0.13 ± 0.0157 h
"Cn1cnc(Cn2c(=O)[nH]/c(=N\c3cc4cn(C)nc4cc3Cl)n(Cc3cc(F)c(F)cc3F)c2=O)n1 [ensitrelvir, reference compound]",CC50,in vitro,> 100 µM
same,EC50,"SARS‐CoV‐2 [7]; Severe acute respiratory syndrome coronavirus 2, A549-ACE2, 24 h",0.028 µM
CC(C)(C)[C@H](NC(=O)C(F)(F)F)C(=O)N1C[C@H]2[C@@H]([C@H]1C(=O)N[C@H](C#N)C[C@@H]1CCNC1=O)C2(C)C [nirmatrelvir],EC50,SARS‐CoV‐2 [8],0.054 µM
same,plasma half‐life,[9],2.03 h
